Laboratory results as given in patent USRE38117E1, “Trioxane dimer compound having antiproliferative and antitumor activities” (Hauser, Inc., priority 1995, dated 2003).

Columns and labels:
Type in all cases: cell-based
CCRF-CEM = assay: NCI 60 cell line screen (SRB), Leukemia
K-562 = assay: NCI 60 cell line screen (SRB), Leukemia; conditions: K-562 (Leukemia)
MOLT-4 = assay: NCI 60 cell line screen (SRB), Leukemia; conditions: MOLT-4 (Leukemia)
RPMI-8226 = assay: NCI 60 cell line screen (SRB), Leukemia; conditions: RPMI-8226 (Leukemia)
SR = assay: NCI 60 cell line screen (SRB), Leukemia
A549/ATCC = assay: NCI 60 cell line screen (SRB), Non-Small Cell Lung Cancer
HOP-62 = assay: as above; conditions: HOP-62 (Non-Small Cell Lung Cancer)
NCI-H226 = assay: as above
NCI-H322M = assay: as above
NCI-H522 = assay: as above
COLO 205 = assay: NCI 60 cell line screen (SRB), Colon Cancer; conditions: COLO 205 (Colon Cancer)
HCT-116 = assay: NCI 60 cell line screen (SRB), Colon Cancer; conditions: HCT-116 (Colon Cancer)
HT29 = assay: NCI 60 cell line screen (SRB), Colon Cancer
KM12 = assay: NCI 60 cell line screen (SRB), Colon Cancer
SW-620 = assay: NCI 60 cell line screen (SRB), Colon Cancer; conditions: SW-620 (Colon Cancer)
SF-268 = assay: NCI 60 cell line screen (SRB), CNS Cancer; conditions: SF-268 (CNS Cancer)
SF-295 = assay: NCI 60 cell line screen (SRB), CNS Cancer; conditions: SF-295 (CNS Cancer)
SNB-75 = assay: NCI 60 cell line screen (SRB), CNS Cancer; conditions: SNB-75 (CNS Cancer)
U251 = assay: NCI 60 cell line screen (SRB), CNS Cancer
M14 = assay: NCI 60 cell line screen (SRB), Melanoma
SK-MEL-28 = assay: NCI 60 cell line screen (SRB), Melanoma; conditions: SK-MEL-28 (Melanoma)
SK-MEL-5 = assay: NCI 60 cell line screen (SRB), Melanoma; conditions: SK-MEL-5 (Melanoma)
UACC-62 = assay: NCI 60 cell line screen (SRB), Melanoma; conditions: UACC-62 (Melanoma)
OVCAR-4 = assay: NCI 60 cell line screen (SRB), Ovarian Cancer; conditions: OVCAR-4 (Ovarian Cancer)
OVCAR-5 = assay: NCI 60 cell line screen (SRB), Ovarian Cancer; conditions: OVCAR-5 (Ovarian Cancer)
786-0 = assay: NCI 60 cell line screen (SRB), Renal Cancer; conditions: 786-0 (Renal Cancer)
A498 = assay: NCI 60 cell line screen (SRB), Renal Cancer
CAKI-1 = assay: NCI 60 cell line screen (SRB), Renal Cancer; conditions: CAKI-1 (Renal Cancer)
UO-31 = assay: NCI 60 cell line screen (SRB), Renal Cancer; conditions: UO-31 (Renal Cancer)
PC-3 = assay: NCI 60 cell line screen (SRB), Prostate Cancer; conditions: PC-3 (Prostate Cancer)
MDA-MB-435 = assay: NCI 60 cell line screen (SRB), Breast Cancer; conditions: MDA-MB-435 (Breast Cancer)
MDA-N = assay: NCI 60 cell line screen (SRB), Breast Cancer

Q: With `COC1OC2(C)CCC3CCCC(CCOC(=O)c4ccc(C(=O)OCCC5CCCC6CCC7(C)OOC56C(OC)O7)cc4)C31OO2` (stereo not drawn) [Compound 11, Bis-ester Dimer] as the compound, how does the Log10GI50 (CCRF-CEM) read?
A: −6.57 M

Q: And the Log10LC50 (CCRF-CEM)?
A: −4.05 M

Q: What about the Log10TGI (CCRF-CEM) of the same compound?
A: −4.89 M

Q: And the Log10GI50 (K-562)?
A: −6.57 M

Q: What about the Log10LC50 (K-562) of the same compound?
A: >−4.00 M

Q: And the Log10TGI (K-562)?
A: >−4.00 M

Q: And the Log10GI50 (MOLT-4)?
A: −6.67 M

Q: What about the Log10LC50 (MOLT-4) of the same compound?
A: >−4.00 M

Q: And the Log10TGI (MOLT-4; listed as Terephtalate Dimer)?
A: −4.70 M

Q: And the Log10TGI (MOLT-4; listed as terephthalate dimer)?
A: 6.20 M

Q: What about the Log10GI50 (RPMI-8226) of the same compound?
A: −6.33 M

Q: What about the Log10LC50 (RPMI-8226) of the same compound?
A: >−4.00 M

Q: What about the Log10TGI (RPMI-8226) of the same compound?
A: −5.10 M

Q: And the Log10GI50 (SR)?
A: −6.38 M

Q: What about the Log10LC50 (SR) of the same compound?
A: >−4.00 M

Q: And the Log10TGI (SR)?
A: −5.17 M

Q: And the Log10GI50 (A549/ATCC)?
A: −5.42 M

Q: And the Log10LC50 (A549/ATCC)?
A: >−4.00 M

Q: What about the Log10TGI (A549/ATCC) of the same compound?
A: >−4.00 M

Q: And the Log10GI50 (HOP-62)?
A: −5.01 M

Q: And the Log10LC50 (HOP-62)?
A: >−4.00 M

Q: And the Log10TGI (HOP-62)?
A: >−4.00 M

Q: And the Log10GI50 (NCI-H226)?
A: −5.26 M

Q: And the Log10LC50 (NCI-H226)?
A: >−4.00 M

Q: What about the Log10TGI (NCI-H226) of the same compound?
A: >−4.00 M

Q: What about the Log10GI50 (NCI-H322M) of the same compound?
A: −4.69 M

Q: And the Log10LC50 (NCI-H322M)?
A: >−4.00 M

Q: What about the Log10TGI (NCI-H322M) of the same compound?
A: >−4.00 M

Q: And the Log10GI50 (NCI-H522)?
A: −5.66 M

Q: What about the Log10LC50 (NCI-H522) of the same compound?
A: >−4.00 M

Q: And the Log10TGI (NCI-H522)?
A: −4.45 M

Q: What about the Log10GI50 (COLO 205) of the same compound?
A: −6.31 M

Q: What about the Log10LC50 (COLO 205) of the same compound?
A: −5.17 M

Q: And the Log10TGI (COLO 205)?
A: −5.71 M

Q: What about the Log10GI50 (HCT-116) of the same compound?
A: −6.30 M

Q: What about the Log10LC50 (HCT-116) of the same compound?
A: >−4.00 M

Q: What about the Log10TGI (HCT-116) of the same compound?
A: >−4.00 M

Q: What about the Log10GI50 (HT29) of the same compound?
A: −5.90 M

Q: And the Log10LC50 (HT29)?
A: >−4.00 M

Q: What about the Log10TGI (HT29) of the same compound?
A: >−4.00 M

Q: What about the Log10GI50 (KM12) of the same compound?
A: −6.24 M

Q: What about the Log10LC50 (KM12) of the same compound?
A: >−4.00 M

Q: And the Log10TGI (KM12)?
A: >−4.00 M

Q: What about the Log10GI50 (SW-620) of the same compound?
A: −6.12 M

Q: What about the Log10LC50 (SW-620) of the same compound?
A: >−4.00 M

Q: And the Log10TGI (SW-620)?
A: >−4.00 M

Q: What about the Log10GI50 (SF-268) of the same compound?
A: −5.14 M

Q: What about the Log10LC50 (SF-268) of the same compound?
A: >−4.00 M

Q: What about the Log10TGI (SF-268) of the same compound?
A: >−4.00 M

Q: What about the Log10GI50 (SF-295) of the same compound?
A: −5.49 M

Q: What about the Log10LC50 (SF-295) of the same compound?
A: >−4.00 M

Q: What about the Log10TGI (SF-295) of the same compound?
A: >−4.00 M

Q: What about the Log10GI50 (SNB-75) of the same compound?
A: −5.66 M

Q: And the Log10LC50 (SNB-75)?
A: >−4.00 M

Q: What about the Log10GI50 (U251) of the same compound?
A: −6.02 M

Q: What about the Log10LC50 (U251) of the same compound?
A: >−4.00 M

Q: And the Log10TGI (U251)?
A: >−4.00 M

Q: And the Log10GI50 (M14)?
A: −5.20 M

Q: And the Log10LC50 (M14)?
A: >−4.00 M

Q: And the Log10TGI (M14)?
A: >−4.00 M

Q: What about the Log10GI50 (SK-MEL-28) of the same compound?
A: −4.31 M

Q: And the Log10LC50 (SK-MEL-28)?
A: >−4.00 M

Q: What about the Log10TGI (SK-MEL-28) of the same compound?
A: >−4.00 M

Q: What about the Log10GI50 (SK-MEL-5) of the same compound?
A: −6.00 M

Q: And the Log10LC50 (SK-MEL-5)?
A: >−4.00 M

Q: And the Log10TGI (SK-MEL-5)?
A: >−4.00 M

Q: And the Log10GI50 (UACC-62)?
A: −5.87 M

Q: And the Log10LC50 (UACC-62)?
A: >−4.00 M

Q: What about the Log10TGI (UACC-62) of the same compound?
A: >−4.00 M

Q: What about the Log10GI50 (OVCAR-4) of the same compound?
A: −5.26 M

Q: And the Log10LC50 (OVCAR-4)?
A: >−4.00 M

Q: And the Log10TGI (OVCAR-4)?
A: >−4.00 M

Q: What about the Log10GI50 (OVCAR-5) of the same compound?
A: −5.45 M

Q: And the Log10LC50 (OVCAR-5)?
A: >−4.00 M

Q: What about the Log10TGI (OVCAR-5) of the same compound?
A: >−4.00 M

Q: What about the Log10GI50 (786-0) of the same compound?
A: −5.41 M

Q: And the Log10LC50 (786-0)?
A: >−4.00 M

Q: What about the Log10TGI (786-0) of the same compound?
A: >−4.00 M

Q: What about the Log10GI50 (A498) of the same compound?
A: >−4.00 M

Q: What about the Log10LC50 (A498) of the same compound?
A: >−4.00 M

Q: And the Log10TGI (A498)?
A: >−4.00 M

Q: And the Log10GI50 (CAKI-1)?
A: −4.99 M

Q: And the Log10LC50 (CAKI-1)?
A: >−4.00 M

Q: And the Log10TGI (CAKI-1)?
A: >−4.00 M

Q: What about the Log10GI50 (UO-31) of the same compound?
A: −5.63 M

Q: And the Log10LC50 (UO-31)?
A: >−4.00 M

Q: And the Log10TGI (UO-31)?
A: >−4.00 M

Q: And the Log10GI50 (PC-3)?
A: −6.51 M

Q: What about the Log10LC50 (PC-3) of the same compound?
A: >−4.00 M

Q: And the Log10TGI (PC-3)?
A: >−4.00 M

Q: And the Log10GI50 (MDA-MB-435)?
A: −5.69 M

Q: What about the Log10LC50 (MDA-MB-435) of the same compound?
A: >−4.00 M

Q: What about the Log10TGI (MDA-MB-435) of the same compound?
A: −4.63 M

Q: What about the Log10GI50 (MDA-N) of the same compound?
A: −5.56 M

Q: What about the Log10LC50 (MDA-N) of the same compound?
A: >−4.00 M

Q: And the Log10TGI (MDA-N)?
A: >−4.00 M
